Test results as given in patent publication US20260256778A1 (AbbVie Inc., priority 2023, published 2026).
In brackets after ≈: the same amount, converted by molar mass. Read-outs that look alike come from different tables or passages of the source.

Key:
[1] = system: non-segmental vitiligo (NSV); settings: for Percent CFB in F-VASI; LSMEAN (SE): Week 24, MMRM; for F-VASI 75; (%): Week 24, NRI
[2] = Solubility of upadacitinib in different aqueous media at 37° C.; format: physicochemical
CXCL10 = experiment: Serum CXCL10 level in the Phase 2 study; format: in vivo, human; settings: by week 2, all dose groups
From the text: (§1) No differences were apparent for active vs. stable subjects.

facial vitiligo area = experiment: 3D digital imaging substudy of facial vitiligo area (Example 3); format: in vivo, human; set-up: F-VASI, Wk 24: scale not given here; settings: for percent reduction of facial vitiligo area from Baseline by 3D imaging / Treatment effect size, Cohen's d of 3D Imaging / Treatment effect size, Cohen's d of F-VASI: Week 24
From the text: Specifically, multiple stereoscopic images were captured by a proprietary optical 3D scanner for a subset of patients in the referenced study. The data acquisition procedure and determination of vitiligo area using the 3D platform were as follows: • 1. Subject was scanned, acquiring 2D raw color images with real time feedback to generate 3D gray low-resolution model • 2. Full resolution color model generated and uploaded to cloud • 3. Web application opened by investigator, who manually selected threshold for each region of face. • 4. The detected vitiligo area was measured and results reported
To accomplish these objectives, twenty-seven subjects were enrolled into the 3D imaging substudy across 6 clinical sites. Twenty-one subjects had high quality 3D images available at Week 24 for analysis. Subjects who enrolled in the 3D digital imaging substudy were randomized as per the main protocol. The demographics, including Fitzpatrick skin types, and baseline disease characteristics in the 3D imaging substudy are provided in Table 9. With reference to Table 9, the demographics were in general consistent with the overall study population.
The quality and completeness of each scan was assessed by a visual inspection of the resulting 3D image by the technician and/or investigator, utilizing Wood's lamp visualization to set a threshold at Baseline, defined as the intensity value used to distinguish which 3D pixels within the image belong to the vitiligo area or to the normal skin area. The threshold value determined by the investigator at Baseline remained constant and applied to all post-baseline 3D images during the treatment period to reflect changes in the pigmentation. Each 3D image included 10 predefined anatomic regions of the face: forehead, left eye, right eye, left lateral cheek/temple, left middle cheek, nose, right middle cheek, right lateral cheek/temple, upper lip, and chin. Results are presented as the sum of vitiligo area measurement (cm^2) across all anatomic regions of the face.

[3] = system: inflammatory chemotactic proteins (CXCL9 and 10) and T-cell activation markers (IL12B and TNFSF9); experiment: Serum type 1 inflammation biomarkers in the Phase 2 study; format: in vivo, human
From the text: as §1

[4] = 6 mg QD, Week 24, change from baseline, 44 patients
[5] = 11 mg QD, Week 24, change from baseline, 45 patients
[6] = 22 mg QD, Week 24, change from baseline, 34 patients
[7] = 22 mg QD, one representative subject, Baseline to Week 24
[8] = Placebo (N = 3) vs 6 mg (N = 7)
[9] = Placebo (N = 3) vs 11 mg (N = 6)
[10] = Placebo (N = 3) vs 22 mg (N = 5)

CC[C@@H]1CN(C(=O)NCC(F)(F)F)C[C@@H]1c1cnc2cnc3[nH]ccc3n12 [Upadacitinib, (3S,4R)-3-ethyl-4-(3H-imidazo[1,2-a]pyrrolo[2,3-e]pyrazin-8-yl)-N-(2,2,2-trifluoroethyl) pyrrolidine-1-carboxamide]
VitiQoL LS mean change ([1]; 6 mg): −7.5%
Percent CFB in F-VASI; LSMEAN (SE) ([1]; 6 mg QD oral): −21.96 (5.162) Percent
CFB in VitiQoL Total Score; LSMEAN (SE) ([1]; 6 mg QD, Week 24): −7.5 (2.27)
Percent CFB in T-VASI; LSMEAN (SE) ([1]; 6 mg QD, Week 24): −13.87 (3.332) Percent
T-VASI 50; (%) ([1]; 6 mg QD, Week 24): 6.1%
Δ vs PBO, CFB in VitiQoL Total Score ([1]; 6 mg QD, Week 24): Δ = −1.9;
Δ vs PBO, F-VASI 50 ([1]; 6 mg QD, Week 24): Δ = 6.6;
Δ vs PBO, F-VASI 75 ([1]; 6 mg QD, Week 24): Δ = 6.9;
Δ vs PBO, Percent CFB in F-VASI ([1]; 6 mg QD, Week 24): Δ = −7.60;
Δ vs PBO, Percent CFB in T-VASI ([1]; 6 mg QD, Week 24): Δ = −7.45;
Δ vs PBO, T-VASI 50 ([1]; 6 mg QD, Week 24): Δ = 3.7;
Δ vs PBO, much better or a little better on PaGIC ([1]; 6 mg QD, Week 24): Δ = 14.3%
Δ vs PBO, much better or a little better on PhGIC ([1]; 6 mg QD, Week 24): Δ = 18%
Achieving much better or a little better on PaGIC (PaGIC-V score of 1 or 2), responders n ([1]; 6 mg QD, Week 24, N = 49): 17 n
F-VASI 50; n ([1]; 6 mg QD, Week 24, N = 49): 8 n
T-VASI 50; n ([1]; 6 mg QD, Week 24, N = 49): 3 n
VNS score of 4 or 5, Responders n ([1]; 6 mg QD, Week 24, N = 49): 0 n
F-VASI 75; n ([1]; 6 mg QD, Week 24, N = 49, NRI): 4 n
F-VASI 75; (%) ([1]; 6 mg QD): 8.2%
DLQI LS mean change ([1]; 6 mg QD, Week 24, change from baseline, 43 patients): −1.4%
HADS Anxiety LS mean change [1, 4]: −0.7%
HADS Depression LS mean change [1, 4]: 0.2%
Percent CFB in F-VASI ([1]; 6 mg, Week 52, As Observed, N = 38): −52.7%
Percent CFB in F-VASI ([1]; 6 mg, Week 52, Intent-to-Treat, MMRM/NRI-MI, N = 49): −52.3%
Percent CFB in F-VASI; LSMEAN (SE) ([1]; 11 mg QD oral): −35.63 (5.297) Percent
CFB in VitiQoL Total Score; LSMEAN (SE) ([1]; 11 mg QD, Week 24): −3.7 (2.30)
Percent CFB in T-VASI; LSMEAN (SE) ([1]; 11 mg QD, Week 24): −17.26 (3.414) Percent
T-VASI 50; (%) ([1]; 11 mg QD, Week 24): 6.4%
Δ vs PBO, CFB in VitiQoL Total Score ([1]; 11 mg QD, Week 24): Δ = 1.9;
Δ vs PBO, F-VASI 50 ([1]; 11 mg QD, Week 24): Δ = 29.3;
Δ vs PBO, F-VASI 75 ([1]; 11 mg QD, Week 24): Δ = 17.8;
Δ vs PBO, Percent CFB in F-VASI ([1]; 11 mg QD, Week 24): Δ = −21.27;
Δ vs PBO, Percent CFB in T-VASI ([1]; 11 mg QD, Week 24): Δ = −10.84;
Δ vs PBO, T-VASI 50 ([1]; 11 mg QD, Week 24): Δ = 3.8;
Δ vs PBO, much better or a little better on PaGIC ([1]; 11 mg QD, Week 24): Δ = 38.5%
Δ vs PBO, much better or a little better on PhGIC ([1]; 11 mg QD, Week 24): Δ = 37.8%
Achieving much better or a little better on PaGIC (PaGIC-V score of 1 or 2), responders n ([1]; 11 mg QD, Week 24, N = 47): 26 n
F-VASI 50; n ([1]; 11 mg QD, Week 24, N = 47): 18 n
T-VASI 50; n ([1]; 11 mg QD, Week 24, N = 47): 3 n
VNS score of 4 or 5, Responders n ([1]; 11 mg QD, Week 24, N = 47): 0 n
F-VASI 75; n ([1]; 11 mg QD, Week 24, N = 47, NRI): 9 n
F-VASI 75; (%) ([1]; 11 mg QD): 19.1%
DLQI LS mean change ([1]; 11 mg QD, Week 24, change from baseline, 42 patients): −1.2%
VitiQoL LS mean change ([1]; 11 mg QD, Week 24, change from baseline, 44 patients): −3.7%
HADS Anxiety LS mean change [1, 5]: 0.0%
HADS Depression LS mean change [1, 5]: −0.3%
Percent CFB in F-VASI ([1]; 11 mg, Week 52, As Observed, N = 38): −64.8%
Percent CFB in F-VASI ([1]; 11 mg, Week 52, Intent-to-Treat, MMRM/NRI-MI, N = 47): −62.8%
Percent CFB in F-VASI; LSMEAN (SE) ([1]; 22 mg QD oral): −33.96 (5.793) Percent
Percent CFB in T-VASI; LSMEAN (SE) ([1]; 22 mg QD, Week 24): −20.69 (3.731) Percent
T-VASI 50; (%) ([1]; 22 mg QD, Week 24): 11.6%
VNS score of 4 or 5, Responders (%) ([1]; 22 mg QD, Week 24): (11.6) %
Δ vs PBO, CFB in VitiQoL Total Score ([1]; 22 mg QD, Week 24): Δ = −1.1;
Δ vs PBO, F-VASI 50 ([1]; 22 mg QD, Week 24): Δ = 28.7;
Δ vs PBO, F-VASI 75 ([1]; 22 mg QD, Week 24): Δ = 11.7;
Δ vs PBO, Percent CFB in F-VASI ([1]; 22 mg QD, Week 24): Δ = −19.60;
Δ vs PBO, Percent CFB in T-VASI ([1]; 22 mg QD, Week 24): Δ = −14.27;
Δ vs PBO, T-VASI 50 ([1]; 22 mg QD, Week 24): Δ = 9.1;
Δ vs PBO, much better or a little better on PaGIC ([1]; 22 mg QD, Week 24): Δ = 41.1%
Δ vs PBO, much better or a little better on PhGIC ([1]; 22 mg QD, Week 24): Δ = 32%
Achieving much better or a little better on PaGIC (PaGIC-V score of 1 or 2), responders n ([1]; 22 mg QD, Week 24, N = 43): 26 n
F-VASI 50; n ([1]; 22 mg QD, Week 24, N = 43): 17 n
T-VASI 50; n ([1]; 22 mg QD, Week 24, N = 43): 5 n
VNS score of 4 or 5, Responders n ([1]; 22 mg QD, Week 24, N = 43): 5 n
F-VASI 75; n ([1]; 22 mg QD, Week 24, N = 43, NRI): 6 n
F-VASI 75; (%) ([1]; 22 mg QD): 14.0%
HADS Anxiety LS mean change [1, 6]: −0.3%
HADS Depression LS mean change [1, 6]: −0.1%
VitiQoL LS mean change [1, 6]: −6.6%
DLQI LS mean change ([1]; 22 mg QD, Week 24, change from baseline, 35 patients): −2.2%
Percent CFB in F-VASI ([1]; 22 mg, Week 52, As Observed, N = 29): −60.8%
Percent CFB in F-VASI ([1]; 22 mg, Week 52, Intent-to-Treat, MMRM/NRI-MI, N = 43): −59.2%
solubility ([2]; 50 mM carbonate buffer, 37 °C, pH 9.11, aqueous buffer, thermodynamic from solid): 199 ± 6 µg/mL (≈ 523 µM)
Solubility (in words) ([2]; at low pH): good solubility
CXCL10 levels (CXCL10): reduced to those in healthy volunteers
% Change Facial Vitiligo Area by 3D Imaging at Week 24, Mean (facial vitiligo area; 6 mg QD, N 7): −15.20%
% Change Facial Vitiligo Area by 3D Imaging at Week 24, Median (facial vitiligo area; 6 mg QD, N 7): −9.85%
percent reduction of facial vitiligo area from Baseline by 3D imaging (facial vitiligo area; 6 mg QD): 15.2%
% Change Facial Vitiligo Area by 3D Imaging at Week 24, Mean (facial vitiligo area; 11 mg QD, N 6): −34.96%
% Change Facial Vitiligo Area by 3D Imaging at Week 24, Median (facial vitiligo area; 11 mg QD, N 6): −37.38%
percent reduction of facial vitiligo area from Baseline by 3D imaging (facial vitiligo area; 11 mg QD): 34.96%
% Change Facial Vitiligo Area by 3D Imaging at Week 24, Mean (facial vitiligo area; 22 mg QD, N 5): −23.00%
% Change Facial Vitiligo Area by 3D Imaging at Week 24, Median (facial vitiligo area; 22 mg QD, N 5): −27.2%
percent reduction of facial vitiligo area from Baseline by 3D imaging (facial vitiligo area; 22 mg QD): 23%
Cherry 3D imaging vitiligo area, % change (facial vitiligo area; [7]): −27.2%
F-VASI, % change (facial vitiligo area; [7]): −24.62%
Cherry 3D imaging vitiligo area, % change (facial vitiligo area; 22 mg QD, one representative subject, Baseline to Week 24, listed as upadacitinib): −27.20%
Cherry 3D imaging vitiligo area, Wk 24 (facial vitiligo area; 22 mg QD, one representative subject, Fitzpatrick Type III, baseline 215.84): 157.13 cm^2
F-VASI, Wk 24 (facial vitiligo area; 22 mg QD, one representative subject, baseline 1.3): 0.98
percent change from baseline in vitiligo extent score (VES) by 3D imaging evaluation (facial vitiligo area; 11 and 22 mg versus placebo, preliminary): greater percent change from baseline
Treatment effect size, Cohen's d of 3D Imaging (facial vitiligo area; [8]): 0.50
Treatment effect size, Cohen's d of F-VASI (facial vitiligo area; [8]): 0.76
Treatment effect size, Cohen's d of 3D Imaging (facial vitiligo area; [9]): > 0.8
Treatment effect size, Cohen's d of F-VASI (facial vitiligo area; [9]): 0.13
Treatment effect size, Cohen's d of 3D Imaging (facial vitiligo area; Placebo (N = 3) vs 11 mg (N = 6), listed as UPA): 1.36
Treatment effect size, Cohen's d of 3D Imaging (facial vitiligo area; [10]): > 0.8
Treatment effect size, Cohen's d of F-VASI (facial vitiligo area; [10]): 0.61
Treatment effect size, Cohen's d of 3D Imaging (facial vitiligo area; Placebo (N = 3) vs 22 mg (N = 5), listed as UPA): 1.02
Inhibition of type 1 inflammation biomarkers ([3]; 11 mg dose): maximal inhibition was achieved
Change from baseline in CXCL9, CXCL10, IL12B and TNFSF9 ([3]; all upadacitinib doses, from week 2 through week 24, data not shown): Reductions from baseline were observed
